{"source": "ChEMBL document CHEMBL3045284", "about": "(Crop Prot, 2009)", "assay_type_in_all_cases": "functional", "key": {"Pyricularia oryzae [1]": {"system": "Pyricularia oryzae", "assay": "Antifungal activity against Magnaporthe oryzae infected six-leaf stage of rice plant assessed as disease recovery at 8 time MIC treated 24 hr before fungal infection measured after 24 hr"}, "Pyricularia oryzae [2]": {"system": "Pyricularia oryzae", "assay": "Antifungal activity against Magnaporthe oryzae infected six-leaf stage of rice plant assessed as disease recovery at 4 time MIC treated 24 hr before fungal infection measured after 24 hr"}, "Pyricularia oryzae [3]": {"system": "Pyricularia oryzae", "assay": "Antifungal activity against Magnaporthe oryzae infected six-leaf stage of rice plant assessed as disease recovery at MIC treated 24 hr before fungal infection measured after 24 hr"}, "Pyricularia oryzae [4]": {"system": "Pyricularia oryzae", "assay": "Antifungal activity against drug-sensitive Magnaporthe oryzae infected six-leaf stage of rice plant assessed as reduction of disease recovery at 2 time MIC treated 24 hr before fungal infection measured after 6 days relative to control", "design": "scale not given: the % may be the effect or the level left"}, "Pyricularia oryzae [5]": {"system": "Pyricularia oryzae", "assay": "Antifungal activity against Magnaporthe oryzae infected six-leaf stage of rice plant assessed susceptible lesion number per leaf area at 2 time MIC treated 24 hr before fungal infection measured after 24 hr"}, "Pyricularia oryzae [6]": {"system": "Pyricularia oryzae", "assay": "Antifungal activity against drug-sensitive Magnaporthe oryzae infected six-leaf stage of rice plant assessed susceptible lesion number per leaf area treated 24 hr before fungal infection measured after 24 hr"}, "Pyricularia oryzae [7]": {"system": "Pyricularia oryzae", "assay": "Antifungal activity against Magnaporthe oryzae infected six-leaf stage of rice plant assessed as disease recovery at 2 time MIC treated 24 hr before fungal infection measured after 24 hr"}, "Pyricularia oryzae [8]": {"system": "Pyricularia oryzae", "assay": "Antifungal activity against Magnaporthe oryzae infected six-leaf stage of rice plant assessed susceptible lesion number per leaf area at 8 time MIC treated 24 hr before fungal infection measured after 24 hr"}, "Pyricularia oryzae [9]": {"system": "Pyricularia oryzae", "assay": "Antifungal activity against Magnaporthe oryzae infected six-leaf stage of rice plant assessed susceptible lesion number per leaf area at 4 time MIC treated 24 hr before fungal infection measured after 24 hr"}, "Pyricularia oryzae [10]": {"system": "Pyricularia oryzae", "assay": "Antifungal activity against Magnaporthe oryzae infected six-leaf stage of rice plant assessed susceptible lesion number per leaf area at MIC treated 24 hr before fungal infection measured after 24 hr"}, "Pyricularia oryzae [11]": {"system": "Pyricularia oryzae", "assay": "Antifungal activity against drug-sensitive Magnaporthe oryzae infected six-leaf stage of rice plant assessed as disease recovery treated 24 hr before fungal infection measured after 24 hr"}, "Pyricularia oryzae [12]": {"system": "Pyricularia oryzae", "assay": "Antifungal activity against drug-sensitive Magnaporthe oryzae infected six-leaf stage of rice plant assessed as reduction of susceptible lesion number per leaf area at 2 time MIC treated 24 hr before fungal infection measured after 6 days relative to control", "design": "scale not given: the % may be the effect or the level left"}}, "data": [{"smiles": "CCOP(=O)(Sc1ccccc1)Sc1ccccc1", "note": "[EDIFENPHOS]", "values": [{"measurement": "Activity", "setting": "Pyricularia oryzae [1]", "value": 0.08, "unit": "%"}, {"measurement": "Activity", "setting": "Pyricularia oryzae [2]", "value": 0.18, "unit": "%"}, {"measurement": "Activity", "setting": "Pyricularia oryzae [3]", "value": 0.49, "unit": "%"}, {"measurement": "Activity", "setting": "Pyricularia oryzae [4]", "value": 55.6, "unit": "%"}, {"measurement": "Activity", "setting": "Pyricularia oryzae [5]", "value": 0.14, "unit": "cm2"}, {"measurement": "Activity", "setting": "Pyricularia oryzae [6]", "value": 0.1, "unit": "cm2"}, {"measurement": "Activity", "setting": "Pyricularia oryzae [7]", "value": 0.35, "unit": "%"}, {"measurement": "Activity", "setting": "Pyricularia oryzae [8]", "value": 0.03, "unit": "cm2"}, {"measurement": "Activity", "setting": "Pyricularia oryzae [9]", "value": 0.07, "unit": "cm2"}, {"measurement": "Activity", "setting": "Pyricularia oryzae [10]", "value": 0.19, "unit": "cm2"}, {"measurement": "Activity", "setting": "Pyricularia oryzae [11]", "value": 0.27, "unit": "%"}, {"measurement": "Activity", "setting": "Pyricularia oryzae [12]", "value": 63.5, "unit": "%"}]}, {"smiles": "CC(C)OP(=O)(OC(C)C)SCc1ccccc1", "note": "[IPROBENFOS]", "values": [{"measurement": "Activity", "setting": "Pyricularia oryzae [1]", "value": 0.45, "unit": "%"}, {"measurement": "Activity", "setting": "Pyricularia oryzae [2]", "value": 0.87, "unit": "%"}, {"measurement": "Activity", "setting": "Pyricularia oryzae [3]", "value": 1.23, "unit": "%"}, {"measurement": "Activity", "setting": "Pyricularia oryzae [4]", "value": 28.8, "unit": "%"}, {"measurement": "Activity", "setting": "Pyricularia oryzae [5]", "value": 1.13, "unit": "cm2"}, {"measurement": "Activity", "setting": "Pyricularia oryzae [6]", "value": 0.73, "unit": "cm2"}, {"measurement": "Activity", "setting": "Pyricularia oryzae [7]", "value": 1.17, "unit": "%"}, {"measurement": "Activity", "setting": "Pyricularia oryzae [8]", "value": 0.39, "unit": "cm2"}, {"measurement": "Activity", "setting": "Pyricularia oryzae [9]", "value": 0.93, "unit": "cm2"}, {"measurement": "Activity", "setting": "Pyricularia oryzae [10]", "value": 1.28, "unit": "cm2"}, {"measurement": "Activity", "setting": "Pyricularia oryzae [11]", "value": 0.8, "unit": "%"}, {"measurement": "Activity", "setting": "Pyricularia oryzae [12]", "value": 28.1, "unit": "%"}]}]}
